Laboratory results taken from patent US20220249592A1, “MUSCLE QUALITY IMPROVEMENT AGENT” (AJINOMOTO CO., INC., priority 2019, published 2022).
*1 amine or outer side, *2 acyl side, *3 side chain or, on linkers, in order; H or OH if unused. Where a SMILES comes first, the peptide text is derived from it. γGlu = O=C(O)[C@H](CCC(=O)[*:2])N[*:1]

Experiments:
[1] = tested on: mouse-derived muscle cell line C2C12; test: Muscle insulin signal (phosphorylated Akt/total Akt phosphorylation index) in C2C12 myotube cells exposed to palmitic acid (FFA); assay type: cell-based; settings: for insulin signal that declined due to FFA: 500 μM
Description: Muscle anabolic signal was monitored by insulin signal, and the action of γ-glutamyl peptide on the decline of insulin signal was evaluated. As the γ-glutamyl peptide, the actions of γ-L-glutamyl-L-valine (γEV), γ-L-glutamyl-L-cysteine (γEC), and γ-L-glutamyl-L-valylglycine (γEVG) were evaluated.
The evaluation was performed using an evaluation system in which exposure of the mouse-derived muscle cell line C2C12 to saturated fatty acid results in a decline in insulin signal, as described below.
Using mouse C3H skeletal muscle myoblast cell line (C2C12 cell) (DS Pharma Biomedical Co., Ltd.), the evaluation was performed.
Induction of differentiation into myotube cells (Myotubes) was performed using cells with myoblast passage number of 12 to 18. Myoblasts were seeded in a 12-well (diameter=3 cm) plate at 0.3×10^5 to 0.5×10^5 cells/well. After confirmation that the cell proliferation state reached 90% confluent, the medium was replaced with DMEM supplemented with 2 (w/v) % horse serum (HS) and 1 (w/v) % penicillin-streptomycin-glutamine (2 (w/v) % HS, 1 (w/v) % P/S, 1 (w/v) % Gln/DMEM), and differentiation into myotube cells (Myotubes) was induced. After confirmation of differentiation into myotube cells (Myotubes), a muscle insulin signal evaluation system was constructed, and the action of each of γEV, γEC, and γEVG was evaluated using the constructed evaluation system.
The myotube cells (Myotubes) were cultured overnight (17 hr to 24 hr) at 37° C. in a 0.5 mM palmitic acid (FFA)/0.5 (w/v) % albumin (BSA)/DMEM culture medium in the presence of 5 (v/v) % carbon dioxide.
After culturing overnight, the cells were preincubated for about 2 hr in DMEM (BSA/FFA free), stimulated by incubation (15 min to 20 min) with 100 nM insulin, and the myotube cells were collected (each n=1 to 2). From the collected cells, proteins were extracted with RIPA (Radio-Immunoprecipitation Assay) buffer (Cell Signaling Technologies Inc.), adjusted to a final protein concentration of 0.5 mg/mL, and used as samples.
The expression levels of phosphorylated Akt (pAkt) (Ser473) (#9271S; Cell Signaling Technologies Inc.), and total Akt (#9272S; Cell Signaling Technologies Inc.) in the above-mentioned sample were quantified by the Western blotting (WB) method. The expression level of each protein was quantified using Western blot-chemiluminescent imaging system (Fusion FX) (Vilber-Lourmat Inc.).
Each γ-glutamyl peptide was added simultaneously with FFA, and the muscle quality-improving effect was examined with the recovery of the muscle insulin signal as an index. The final concentration of γEV was adjusted to 100 μM or 300 μM, and the final concentrations of γEC and […] were adjusted to 500 μM. As a positive control, an antioxidative active substance N-acetylcysteine (NAC) 5 mM was used.
From the measurement results of the expression levels of phosphorylated Akt (Ser473) and total Akt, the ratio of phosphorylated Akt and total Akt with insulin stimulation to the ratio of phosphorylated Akt and total Akt without insulin stimulation [(pAkt/Total Akt) Insulin+]/[(pAkt/Total Akt) Insulin-] was determined and shown in FIGS. 1 and 2 as the phosphorylation index (stimulation index). In the Figures, the average values of the calculated phosphorylation indices are shown in bar graphs. The symbols (●, ▪, ▴, ▾, □, Δ, ∇) in the Figures indicate the calculated values of the phosphorylation index obtained for each sample.

C57BL/6J mice [2] = test: Amount of neutral fat in muscle and palmitic acid in neutral fat in muscle of mice under motility limitation; assay type: in vivo, mouse; settings: 0.2 wt % in feed, narrow cage, 28 days, vs motility limitation+lard ingestion group
Description: (§1) Using C57BL/6J mice, the effect of ingestion of γ-glutamyl peptide on the changes in muscle quality and muscle function induced by narrowing the area of the cage used for rearing to limit exercise was investigated.
C57BL/6J mice were grouped into 3 groups shown in Table 2 such that the body weight, grip strength, and lean body weight would be uniform, and one mouse was housed per cage and reared. As cages for rearing mice, a wide cage (width 220 mm×length 320 mm×height 165 mm) and a narrow cage (width 110 mm×length 160 mm×height 130 mm) were used. […]
After the completion of the above-mentioned grip strength measurement, muscles (gastrocnemius muscles) were collected from the mice in each group, and the amount of neutral fat in the muscle, which is one of the indicators of muscle quality, and the amount of palmitic acid in neutral fat in the muscle were measured.
Fat ingredient was extracted according to a chloroform/methanol method from the collected muscle, and the neutral fat content was measured by a colorimetric method at 600 nm, as well as the neutral fat was fractionated and collected by thin layer chromatography (TLC). […] The neutral fat fraction was extracted again by a chloroform/methanol method, and the composition of the fatty acid in the neutral fat was analyzed, and the amount of palmitic acid was measured. The composition of the fatty acid was analyzed by gas chromatography. […]

[3] = tested on: insulin receptor substrate-1 (IRS-1); test: Muscle insulin sensitivity (IRS-1 serine phosphorylation activity, Western blotting) in rats fed a high-fat diet; assay type: in vivo, rat; settings: 0.2 wt % in 30 wt % fat feed plus exercise, 6th week; vs high fat group p<0.01; FIG. 5
Description: (§2) Furthermore, the exercise groups (exercise group and exercise+γEV group) were made to perform exercise once a week under the exercise load conditions shown below.
(§3) At the 5th week of feeding the high-fat diet, the exercise function (walking function) was evaluated as follows. At the 6th week of feeding the high-fat diet, an autopsy was performed, and the muscle (tibialis anterior muscle) weight was measured. As described below, the muscle insulin sensitivity was evaluated, the fatty acid composition in muscle diacylglycerol was analyzed, and the muscle function was evaluated.
As an index of muscle insulin sensitivity, insulin receptor substrate-1 (IRS-1) serine phosphorylation activity was evaluated by a Western blotting (WB) method. […]
As the antibodies, anti-Phospho-IRS-1 (Ser307) antibody (Cell Signaling Technologies Inc.), and anti-total IRS-1 antibody (Cell Signaling Technologies Inc.) were used, the expression levels of Phospho-IRS-1 (Ser307) and total IRS-1 were quantified using Western blot-chemiluminescent imaging system (Fusion FX) (Vilber-Lourmat Inc.).
As an index of insulin sensitivity, the ratio of Phospho-IRS-1 (Ser307) expression level to total IRS-1 expression level [(Phospho-IRS-1 (Ser307))/(total IRS-1)] was determined. […]

[4] = tested on: Sprague-Dawley (SD) male rats; test: Muscle (tibialis anterior muscle) weight in rats fed a high-fat diet with exercise load; assay type: in vivo, rat; settings: 0.2 wt % in 30 wt % fat feed plus exercise, 6th week; compared with exercise only group; FIG. 3
Description: as §2, §3
The exercise was performed using the left leg of the rat by applying a local resistance exercise load. A rat under isoflurane anesthesia was placed in an ankle exercise device for small animals (Bioresearch Center K.K.), a skin stimulation electrode was attached to the tibialis anterior muscle, and contraction was caused by electrical stimulation. At the same time, the tibialis anterior muscle was pulled in the direction opposite to the contraction direction, and an extension load was applied. The exercise load setting conditions are shown below.
(i) contraction (electric) load condition: 4 mA to 5 mA, 100 Hz, 1100 msec
(ii) extension load condition: angle of left leg joint was extended from 90° to 135° at rate=100 deg/sec […]

[5] = tested on: Sprague-Dawley (SD) male rats; test: Walking function (stride of walking, length and width) in rats fed a high-fat diet; assay type: in vivo, rat; settings: 0.2 wt % in 30 wt % fat feed plus exercise, 5th week; widening of width and narrowing of length; FIG. 4
Description: as §2, §3
The walking function was evaluated by walking the rat without an anesthesia and observing the state of walking. India ink was applied to the plantar part of the both legs of the rat, and the rat was made to walk through a cylindrical tunnel with Japanese writing paper laid therein and the stride of walking (width and length) was measured based on the trace of the right leg and the left leg after walking, and the walking function was evaluated.
The respective measurement or evaluation or analysis results of the above-mentioned (2) to (4) are shown by mean±standard error in FIG. 3 to FIG. 7. […]

[6] = tested on: Sprague-Dawley (SD) male rats; test: Amount of diacylglycerol and fatty acid composition in muscle diacylglycerol in rats fed a high-fat diet; assay type: in vivo, rat; settings: 0.2 wt % in 30 wt % fat feed plus exercise, 6th week, vs high fat group p<0.01
Description: as §2, §3
The amount of diacylglycerol (DAG) in muscle, which is highly related to muscle insulin sensitivity, was analyzed, and the composition of fatty acid contained in DAG was analyzed.
The fat ingredient in the muscle collected during autopsy was extracted according to a chloroform/methanol method, and the DAG fraction was extracted using thin layer chromatography (TLC). […] DAG was quantified at 600 nm by a colorimetric method.
The DAG fraction after development was extracted by a chloroform/methanol method, and fatty acid in DAG was quantified. As fatty acids, 9 kinds of fatty acids (lauric acid, myristic acid, palmitoleic acid, palmitic acid, linolenic acid, linoleic acid, oleic acid, stearic acid, arachidonic acid) mainly contained in the living body were selected and analyzed using gas chromatography. […]

C57BL/6J mice [7] = test: Grip strength (muscle strength) of mice under motility limitation; assay type: in vivo, mouse; settings: 0.2 wt % in feed, narrow cage, 28 days; vs motility limitation+lard ingestion group; FIG. 8
Description: as §1
C57BL/6J mice were grouped into 3 groups shown in Table 2 such that the body weight, grip strength, and lean body weight would be uniform, and one mouse was housed per cage and reared. As cages for rearing mice, a wide cage (width 220 mm×length 320 mm×height 165 mm) and a narrow cage (width 110 mm×length 160 mm×height 130 mm) were used. In addition, as an experimental diet, a diet containing 20 wt % casein and 7 wt % lard or a diet containing 20 wt % casein, 7 wt % lard, and 0.2 wt % γ-glutamyl valine (γEV) was supplied.
After rearing for 28 days under the above-mentioned conditions, the grip strength of each mouse was measured and the muscle strength was evaluated.
The grip strength of the mouse was measured using a grip strength meter for small animals (“Chatillon”, Columbus Instruments). […] The aforementioned grip strength was consecutively measured five times, and the average value was calculated and used as the grip strength value of each individual. […]

[8] = added simultaneously with 0.5 mM FFA, FIG. 2

Compound	insulin signal that declined due to FFA [1, 8]	amount of neutral fat in the muscle (gastrocnemius muscle) (C57BL/6J mice [2]; FIG. 9)	amount of palmitic acid in the neutral fat in the muscle (gastrocnemius muscle) (C57BL/6J mice [2]; FIG. 10)	decline in muscle insulin sensitivity [(Phospho-IRS-1 (Ser307))/(total IRS-1)] [3]	muscle weight (tibialis anterior muscle, weight ratio to body weight) [4]	stride of walking (length and width) during walking [5]	increase in the amount of DAG in skeletal muscle ([6]; FIG. 6)	amount of palmitic acid in muscle DAG ([6]; FIG. 7)	muscle insulin signal increasing action compared with NAC ([1]; 100 μM vs NAC 5 mM, FIG. 2)	muscle insulin signal increasing action compared with NAC ([1]; 300 μM vs NAC 5 mM, FIG. 1)	decline in muscle insulin signal due to FFA (phosphorylation index) ([1]; 300 μM, added simultaneously with 0.5 mM FFA, 100 nM insulin stimulation, FIG. 1)	grip strength (C57BL/6J mice [7])
N[C@@H](CCC(=O)N[C@@H](CS)C(=O)O)C(=O)O [γEC, γ-L-glutamyl-L-cysteine]	increase the insulin signal											
CC(C)[C@H](NC(=O)CC[C@H](N)C(=O)O)C(=O)NCC(=O)O [γEVG, γ-L-glutamyl-L-valylglycine] (γGlu-Val-Gly-OH)	increase the insulin signal											
CC(C)[C@H](NC(=O)CC[C@H](N)C(=O)O)C(=O)O [γEV, γ-L-glutamyl-L-valine]		significantly (p<0.1) small	significantly (p<0.1) small	significantly suppressed	increase in the muscle weight tended to be promoted	suppressed to the same levels as in the normal group	significantly suppressed	significantly lower than in the high fat group	superior to that of NAC	equal to or higher than that of NAC	recovered	significantly (p<0.05) improved
